In patent US6610677B2, “Pyrazole compounds useful as protein kinase inhibitors” (Vertex Pharmaceuticals Incorporated, priority 2000, dated 2003) one finds Ki and melting point data, which are given here for 32 compounds.

A value given as a limit tells only on which side of the number the result lay.

A word on the Ki: it is the dissociation constant of the complex between target and ligand, obtained from inhibition or displacement. High values mean a looser hold on the target, low ones a stronger hold on the target. As a reminder, the melting point is the temperature, or range, at which the solid turns liquid.

Data set [1] has as its target T1, GSK-3β (AA 1-420) (Homo sapiens, UniProt P49841).
T1 construct: GSK-3β (AA 1-420)
As to the kind of experiment: Ki determination for the inhibition of GSK-3 (coupled enzyme system). In kind it is biochemical. The conditions noted are these: 20 μM ATP, 300 μM peptide, 20 nM GSK-3β, 30° C. The method in brief: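 Ki values come from reaction rates over 10 min at 30 °C as a function of inhibitor concentration (12-point titration, 0.002–30 μM, 10 min preincubation). GSK-3β (AA 1-420, 20 nM) phosphorylated 300 μM primed peptide with 20 μM ATP; ADP formation followed by coupled NADH oxidation, pH 7.5.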

In data set [2] the target is T2, Aurora-2 (Homo sapiens, UniProt O14965).
T2 sequence (O14965 1-403): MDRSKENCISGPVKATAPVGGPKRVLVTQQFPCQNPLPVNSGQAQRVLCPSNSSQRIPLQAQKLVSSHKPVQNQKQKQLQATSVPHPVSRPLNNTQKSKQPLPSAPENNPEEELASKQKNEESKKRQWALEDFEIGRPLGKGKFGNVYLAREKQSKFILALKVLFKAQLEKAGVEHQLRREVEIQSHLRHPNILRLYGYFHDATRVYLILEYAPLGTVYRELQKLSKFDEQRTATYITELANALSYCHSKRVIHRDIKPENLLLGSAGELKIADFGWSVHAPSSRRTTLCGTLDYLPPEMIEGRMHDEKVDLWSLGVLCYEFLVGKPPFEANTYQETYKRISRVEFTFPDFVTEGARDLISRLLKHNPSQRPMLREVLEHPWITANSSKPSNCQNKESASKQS
As to the kind of experiment: Ki determination for the inhibition of Aurora-2 (coupled enzyme assay). Format: biochemical. Particulars: 70 nM Aurora-2, peptide LRRASLG, 30° C. How it is done:
Compounds were screened in the following manner for their ability to inhibit Aurora-2 using a standard coupled enzyme assay (Fox et al (1998) Protein Sci 7, 2249).
To an assay stock buffer solution containing 0.1M HEPES 7.5, 10 mM MgCl2, 1 mM DTT, 25 mM NaCl, 2.5 mM phosphoenolpyruvate, […], 30 mg/ml pyruvate kinase, 10 mg/ml lactate dehydrogenase, […], and 800 μM peptide (LRRASLG, American Peptide, Sunnyvale, Calif.) was added a DMSO solution of a compound of the present invention to a final concentration of 30 μM. The resulting mixture was incubated at 30° C. for 10 min. The reaction was initiated by the addition of 10 μL of Aurora-2 stock solution to give a final concentration of 70 nM in the assay. The rates of reaction were obtained by monitoring absorbance at 340 nm over a 5 minute read time at 30° C. using a BioRad Ultramark plate reader (Hercules, Calif.). The Ki values were determined from the rate data as a function of inhibitor concentration.

T1 sequence (P49841 whole entry, the tested form may be a part): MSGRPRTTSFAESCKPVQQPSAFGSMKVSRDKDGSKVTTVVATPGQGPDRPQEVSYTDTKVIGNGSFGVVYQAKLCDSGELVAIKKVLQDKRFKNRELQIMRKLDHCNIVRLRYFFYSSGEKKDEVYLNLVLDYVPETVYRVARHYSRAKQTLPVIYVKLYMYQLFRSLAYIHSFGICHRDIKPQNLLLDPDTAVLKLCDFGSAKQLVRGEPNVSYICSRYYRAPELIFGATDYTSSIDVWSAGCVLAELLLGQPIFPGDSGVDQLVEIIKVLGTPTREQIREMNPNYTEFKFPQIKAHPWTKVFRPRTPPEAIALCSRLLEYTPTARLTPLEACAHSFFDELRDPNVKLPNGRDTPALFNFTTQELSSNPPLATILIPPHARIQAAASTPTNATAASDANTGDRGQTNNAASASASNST

Turning to `Cc1cc(Nc2nc(-c3ccncc3)nc3cc(Cl)ccc23)[nH]n1` [III-28, (7-Chloro-2-pyridin-4-yl-quinazolin-4-yl)-(5-methyl-2H-pyrazol-3-yl)-amine], the inhibitory constant (Ki) in data set [1] and in data set [2] was 100 to 1000 nM in each case. Turning to `Cc1cc(Nc2nc(C3CCCCC3)nc3ccccc23)[nH]n1` [III-30, (2-Cyclohexyl-quinazolin-4-yl)-(5-methyl-2H-pyrazol-3-yl)-amine], the Ki in data set [1] and in data set [2] was under 100 nM each time. With `Cc1cc(Nc2nc(-c3cc(Cl)cc(Cl)c3)nc3ccccc23)[nH]n1` [III-36, [2-(3,5-Dichlorophenyl)-quinazolin-4-yl]-(5-methyl-2H-pyrazol-3-yl)-amine], the melting point stood at 228 °C. In the case of `Clc1ccc(-c2nc(Nc3cc(C4CC4)n[nH]3)c3ccccc3n2)cc1Cl` [III-46, (5-Cyclopropyl-2H-pyrazol-3-yl)-[2-(3,4-dichlorophenyl)-quinazolin-4-yl]-amine], the inhibition constant Ki in data set [1] and in data set [2] was under 100 nM throughout. As to `Cc1cccc(-c2nc(Nc3cc(C)n[nH]3)c3ccccc3n2)c1` [III-50, [2-(3-Methylphenyl)-quinazolin-4-yl]-(5-methyl-2H-pyrazol-3-yl)-amine], the Ki is 100 to 1000 nM in data set [1] and under 100 nM in data set [2]. For the compound `Cc1cc(Nc2nc(-c3cc(F)cc(F)c3)nc3ccccc23)[nH]n1` [III-51, [2-(3,5-Difluorophenyl)-quinazolin-4-yl]-(5-methyl-2H-pyrazol-3-yl)-amine], the Ki in data set [1] and in data set [2] was under 100 nM throughout.

`Cc1cc(Nc2nc(-c3ccc(F)c(Cl)c3)nc3ccccc23)[nH]n1` [III-52, [2-(3-Chloro-4-fluorophenyl)-quinazolin-4-yl]-(5-methyl-2H-pyrazol-3-yl)-amine]: the Ki in data set [1] and in data set [2] was under 100 nM each time. As for `Cc1cc(Nc2nc(-c3cccc(C(F)(F)F)c3)nc3ccccc23)[nH]n1` [III-53, (5-Methyl-2H-pyrazol-3-yl)-[2-(3-trifluoromethylphenyl)-quinazolin-4-yl]-amine], the Ki in data set [1] and in data set [2] was under 100 nM each time. As to `Cc1cc(Nc2nc(-c3cccc(C#N)c3)nc3ccccc23)[nH]n1` [III-54, [2-(3-Cyanophenyl)-quinazolin-4-yl]-(5-methyl-2H-pyrazol-3-yl)-amine], the Ki in data set [1] and in data set [2] was under 100 nM each time. For `Cc1cc(Nc2nc(-c3cccc(C(C)C)c3)nc3ccccc23)[nH]n1` [III-55, [2-(3-Isopropylphenyl)-quinazolin-4-yl]-(5-methyl-2H-pyrazol-3-yl)-amine], the Ki in data set [1] and in data set [2] was under 100 nM in each case. For the compound `Cc1cc(Nc2nc(-c3cccnc3)nc3ccccc23)[nH]n1` [III-56, (5-Methyl-2H-pyrazol-3-yl)-(2-pyridin-3-yl-quinazolin-4-yl)-amine], the Ki in data set [1] and in data set [2] was under 100 nM throughout. On to `CC(=O)c1cccc(-c2nc(Nc3cc(C)n[nH]3)c3ccccc3n2)c1` [III-57, [2-(3-Acetylphenyl)-quinazolin-4-yl]-(5-methyl-2H-pyrazol-3-yl)-amine], for which the Ki in data set [1] and in data set [2] was under 100 nM in each case. On to `Cc1cc(Nc2nc(-c3cc(C(F)(F)F)cc(C(F)(F)F)c3)nc3ccccc23)[nH]n1` [III-58, [2-(3,5-Ditrifluoromethylphenyl)-quinazolin-4-yl]-(5-methyl-2H-pyrazol-3-yl)-amine], for which the Ki in data set [1] is under 100 nM; in data set [2], 100 to 1000 nM.

`Cc1cc(Nc2nc(-c3cccc(CO)c3)nc3ccccc23)[nH]n1` [III-59, [2-(3-Hydroxymethylphenyl)-quinazolin-4-yl]-(5-methyl-2H-pyrazol-3-yl)-amine]: the Ki in data set [1] and in data set [2] was under 100 nM throughout. Compound `CC(C)(C)c1cc(Nc2nc(-c3ccncc3)nc3ccccc23)[nH]n1` [III-69, (5-tert-Butyl-2H-pyrazol-3-yl)-(2-pyridin-4-yl-quinazolin-4-yl)-amine] had a melting point of over 300 °C. Take `O=C(O)c1cc(Nc2nc(-c3ccccc3)nc3ccccc23)[nH]n1` [III-72, (5-Carboxy-2H-pyrazol-3-yl)-(2-phenyl-quinazolin-4-yl)-amine]: the melting point was 289 to 291 °C (dec.). On to `C=CCNC(=O)c1cc(Nc2nc(-c3ccccc3)nc3ccccc23)[nH]n1` [III-82, (5-Allylcarbamoyl-2H-pyrazol-3-yl)-(2-phenyl-quinazolin-4-yl)-amine], for which the Ki in data set [1] was in the range of 100 to 1000 nM; in data set [2] it was 1000 to 20000 nM. `Cc1cc(Nc2nc(N3CCOCC3)nc3ccccc23)[nH]n1` [III-104, (5-Methyl-2H-pyrazol-3-yl)-(2-morpholin-4-yl-quinazolin-4-yl)-amine] came in with a melting point of 223 to 224 °C. For the compound `OCc1cc(Nc2nc(N3CCCCC3)nc3ccccc23)[nH]n1` [III-124, (5-Hydroxymethyl-2H-pyrazol-3-yl)-[2-(piperidin-1-yl)-quinazolin-4-yl]-amine], the Ki in data set [1] and in data set [2] was 100 to 1000 nM each time. Turning to `Fc1cc(F)c2n[nH]c(Nc3nc(-c4ccccc4)nc4c3CCCC4)c2c1` [III-127, (5,7-Difluoro-1H-indazol-3-yl)-(2-phenyl-5,6,7,8-tetrahydroquinazolin-4-yl)-amine], the Ki in data set [1] is under 100 nM; in data set [2], 1000 to 20000 nM. Taken in the same sequence, the figures for `Fc1cccc2c(Nc3nc(-c4ccccc4)nc4ccccc34)[nH]nc12` [III-129, (7-Fluoro-1H-indazol-3-yl)-(2-phenyl-quinazolin-4-yl)-amine] were 100 to 1000 nM and 1000 to 20000 nM. Consider `Fc1ccc2n[nH]c(Nc3nc(-c4ccccc4)nc4ccccc34)c2c1` [III-130, (5-Fluoro-1H-indazol-3-yl)-(2-phenyl-quinazolin-4-yl)-amine], for which the Ki in data set [1] is under 100 nM; in data set [2], 100 to 1000 nM. For `FC(F)(F)c1cccc(-c2nc(Nc3[nH]nc4ccccc34)c3ccccc3n2)c1` [III-132, (1H-Indazol-3-yl)-[2-(3-trifluoromethyl-phenyl)-quinazolin-4-yl]-amine], the Ki in data set [1] was 100 to 1000 nM; in data set [2], 1000 to 20000 nM.

For the compound `c1ccc2c(Nc3n[nH]c4ccccc34)nc(-n3ccnc3)nc2c1` [III-141, (2-imidazol-1-yl-quinazolin-4-yl)-(1H-indazol-3-yl)-amine], the Ki in data set [1] is under 100 nM; in data set [2], 1000 to 20000 nM. As for `Cc1cc(Nc2ccnc(-c3ccccc3)n2)n[nH]1` [IV-1, (5-Methyl-2H-pyrazol-3-yl)-(2-phenyl-pyrimidin-4-yl)-amine], the melting point is 245 to 246 °C. On the same count and under the same terms, the result for `CC(=O)Nc1ccc(Sc2cc(Nc3cc(C)[nH]n3)nc(-c3ccccc3)n2)cc1` [IV-3, [6-(4-Acetamidophenylsulfanyl)-2-phenyl-pyrimidin-4-yl]-(5-methyl-2H-pyrazol-3-yl)-amine] reads 235 to 236 °C. On the same count and under the same terms, the result for `Cc1cc(Nc2ccnc(N3CCC(C)CC3)n2)n[nH]1` [IV-4, [2-(4-Methylpiperidin-1-yl)-pyrimidin-4-yl]-(5-methyl-2H-pyrazol-3-yl)-amine] reads 215 to 216 °C; that for `Cc1cc(Nc2nc(N3CCC(C)CC3)ncc2[N+](=O)[O-])[nH]n1` [IV-5, [2-(4-Methylpiperidin-1-yl)-5-nitropyrimidin-4-yl]-(5-methyl-2H-pyrazol-3-yl)-amine], 185 to 187 °C; that for `Cc1cc(Nc2nc(N3CCC(C)CC3)nc(C)c2N)n[nH]1` [IV-7, [5-Amino-6-methyl-2-(4-methylpiperidin-1-yl)-pyrimidin-4-yl]-(5-methyl-2H-pyrazol-3-yl)-amine], 172 to 175 °C.

Take `CC1CCN(c2nc(Nc3cc(C4CC4)n[nH]3)c3nccc-3[nH]2)CC1` [IV-34, (5-Cyclopropyl-2H-pyrazol-3-yl)-[2-(4-methylpiperidin-1-yl)-pyrrolo[3,2-d]pyrimidin-4-yl]-amine]: the Ki in data set [1] and in data set [2] was under 100 nM in each case. Consider `FC(F)(F)c1ccccc1-c1nc(Nc2nc[nH]n2)c2ccccc2n1` [IX-47, (2H-[1,2,4]-Triazol-3-yl)-[2-(2-trifluoromethylphenyl)-quinazolin-4-yl]-amine], for which the values for the Ki in data set [1] and in data set [2] were under 100 nM and 1000 to 20000 nM, respectively. In the case of `FC(F)(F)c1ccccc1-c1cc(Nc2nc[nH]n2)c2ccccc2n1` [IX-177, (1H-[1,2,4]triazol-3-yl)-[2-(2-trifluoromethyl-phenyl)-quinolin-4-yl]-amine], the figures for the Ki in data set [1] and in data set [2] were 100 to 1000 nM and 1000 to 20000 nM, respectively.
